The assay has as its target T1, MD-2 (TLR4/MD-2 complex) (Homo sapiens, UniProt Q9Y6Y9).
T1 construct: gene LY96; Recombinant human TLR4/MD2 complex; with TLR4
Description: SPR (Biacore X100) on immobilized recombinant human TLR4/MD-2; agonism supported in HEK-Blue hTLR4 cells. The format is binding.

T1 sequence (Q9Y6Y9 19-160): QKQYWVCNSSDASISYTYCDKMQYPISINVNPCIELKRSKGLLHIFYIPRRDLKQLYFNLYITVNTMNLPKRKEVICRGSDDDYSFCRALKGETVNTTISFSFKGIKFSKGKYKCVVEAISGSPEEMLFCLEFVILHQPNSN
T1 sequence (O00206 24-839 partner): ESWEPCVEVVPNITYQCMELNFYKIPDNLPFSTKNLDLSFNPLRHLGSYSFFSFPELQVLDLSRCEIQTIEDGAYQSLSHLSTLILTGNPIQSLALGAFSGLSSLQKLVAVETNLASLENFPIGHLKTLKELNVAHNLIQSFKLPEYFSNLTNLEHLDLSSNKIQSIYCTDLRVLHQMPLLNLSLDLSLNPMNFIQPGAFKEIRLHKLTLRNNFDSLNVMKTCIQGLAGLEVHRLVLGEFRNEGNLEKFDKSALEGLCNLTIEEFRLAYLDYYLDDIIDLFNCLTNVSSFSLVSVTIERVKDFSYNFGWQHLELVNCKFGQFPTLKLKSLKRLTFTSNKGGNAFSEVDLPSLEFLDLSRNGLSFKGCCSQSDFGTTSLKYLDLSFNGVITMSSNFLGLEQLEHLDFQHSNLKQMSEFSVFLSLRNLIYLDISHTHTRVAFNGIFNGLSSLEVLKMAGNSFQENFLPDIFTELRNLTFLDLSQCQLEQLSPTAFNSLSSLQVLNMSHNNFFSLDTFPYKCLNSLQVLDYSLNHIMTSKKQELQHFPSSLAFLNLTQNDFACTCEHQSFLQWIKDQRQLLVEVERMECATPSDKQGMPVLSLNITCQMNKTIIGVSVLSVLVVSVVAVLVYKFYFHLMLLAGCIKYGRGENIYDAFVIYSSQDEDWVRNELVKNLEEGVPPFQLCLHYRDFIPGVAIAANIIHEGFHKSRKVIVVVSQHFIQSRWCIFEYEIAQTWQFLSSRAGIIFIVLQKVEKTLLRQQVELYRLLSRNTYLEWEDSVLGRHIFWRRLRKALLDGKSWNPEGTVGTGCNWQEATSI

Consider `CCCCCCCCCCCCCC(=O)N[C@H]1[C@@H](OP(=O)(O)O)O[C@H](CO)[C@@H](OC(=O)CCCCCCCCCCCCC)[C@@H]1OC(=O)CCCCCCCCCCCCC` [FP11], for which the dissociation constant Kd amounted to 180 nM. For `CCCCCCCCCCCC(=O)N[C@H]1[C@@H](OP(=O)(O)O)O[C@H](CO)[C@@H](OC(=O)CCCCCCCCCCC)[C@@H]1OC(=O)CCCCCCCCCCC` [FP18], the Kd turned out to be 570 nM.

In general, Kd refers to the free concentration of one partner at which half of the binding sites on the other are occupied at equilibrium, for simple one-to-one binding.

The values are drawn from article PMC8404200, “Synthetic Glycolipids as Molecular Vaccine Adjuvants: Mechanism of Action in Human Cells and In Vivo Activity” (Journal of Medicinal Chemistry, 2021).
